Columns and labels:
[1] = tested on: Bovine viral diarrhea virus 1; assay: Antiviral activity against BVDV infected in MDBK cells assessed as protection against virus-induced cytopathic effect after 3 days by MTS/PMS assay; type: functional, organism-based; details: Bovine viral diarrhea virus isolates and strains, 72 h
Acetylcholinesterase = Acetylcholinesterase (Electrophorus electricus, UniProt O42275); assay: Inhibition of electric eel AChE using acetylthiocholine iodide as substrate after 1 min by Ellman's method
Candida albicans = assay: Antifungal activity against Candida albicans MTCC 227 assessed as zone of inhibition at 50 mg/ml after 24 hrs by agar disc-diffusion method; type: functional; details: MTCC 227, 24 h, read-out: IZ
Klebsiella pneumoniae = assay: Antibacterial activity against Klebsiella pneumoniae assessed as growth inhibition; type: functional
Jurkat = assay: Cytotoxicity against human Jurkat cells assessed as cell growth inhibition by MTT assay; type: functional, cell-based
HeLa = assay: Cytotoxicity against human HeLa cells; type: functional, cell-based
K562 = assay: Cytotoxicity against human K562 cells; type: functional, cell-based

Sequence of Acetylcholinesterase (O42275 whole entry, the tested form may be a part): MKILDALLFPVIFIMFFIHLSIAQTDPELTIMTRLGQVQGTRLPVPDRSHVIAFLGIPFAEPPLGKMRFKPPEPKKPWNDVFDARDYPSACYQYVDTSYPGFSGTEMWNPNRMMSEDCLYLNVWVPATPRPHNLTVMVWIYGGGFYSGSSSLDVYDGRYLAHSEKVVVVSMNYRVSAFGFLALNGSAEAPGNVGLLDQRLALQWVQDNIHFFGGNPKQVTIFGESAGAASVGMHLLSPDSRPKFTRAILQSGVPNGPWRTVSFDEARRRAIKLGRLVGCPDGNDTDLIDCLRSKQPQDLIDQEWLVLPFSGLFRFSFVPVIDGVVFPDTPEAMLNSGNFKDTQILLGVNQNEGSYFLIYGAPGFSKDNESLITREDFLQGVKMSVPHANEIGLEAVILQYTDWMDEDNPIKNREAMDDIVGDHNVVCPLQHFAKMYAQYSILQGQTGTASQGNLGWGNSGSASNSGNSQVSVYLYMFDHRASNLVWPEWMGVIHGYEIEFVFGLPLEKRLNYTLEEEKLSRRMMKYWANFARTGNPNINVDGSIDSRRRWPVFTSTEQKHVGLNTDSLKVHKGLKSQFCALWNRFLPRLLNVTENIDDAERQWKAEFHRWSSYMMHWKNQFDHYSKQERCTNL

In the case of `COc1cc2c(cc1OC)/C(=N/NC(N)=S)CC2`, the EC50 [1] is reported as 5.35 µM.
`NNc1ccc(C(=O)NCCCCCOc2ccc3c(c2)CC(CN2CCC(Cc4ccccc4)CC2)C3=O)cn1` (configuration not stated) was tested, and the IC50 (Acetylcholinesterase) was 1.09 µM.
In the case of `COc1cccc(-c2c(C#N)c(N)n(/N=C3\CCc4cc(OC)c(OC)cc43)c(=O)c2C#N)c1`, the zone of inhibition at 50000 µg/mL (Candida albicans) is reported as 23 mm.
With `COc1cc2c(cc1OC)C(=O)/C(=C/c1cccc(/C=C/c3ccc4ccc(Cl)cc4n3)c1)C2` the “growth inhibition (GI)” value (Klebsiella pneumoniae) was 11.23%.
In the case of `COc1cc2c(c(N)c1OC)C/C(=C\c1cc(C)c(O)c(C)c1)C2=O`, the IC50 (Jurkat) is reported as 0.001 µM.
For `COc1cc(OC)c2c(c1)C(=O)CC2c1ccc(Br)cc1` (configuration not stated), the IC50 (HeLa) was 60 µM and the IC50 (K562) was 10 µM.
